Data taken from ChEMBL document CHEMBL1833824, “Effects of cyclization on stability, structure, and activity of α-conotoxin RgIA at the α9α10 nicotinic acetylcholine receptor and GABA(B) receptor” (J Med Chem, 2011).

Assay: Activation of human alpha-9/rat alpha-10 nACHR expressed in Xenopus oocytes assessed as increase of acetylcholine-induced current
Assay type: cell-based
Conditions: Oocyte

CC(=O)OCC[N+](C)(C)C [ACETYLCHOLINE]
EC50: 50 µM
